Patent publication US20030129193A1 (priority 2001, published 2003)

Tested on: bEnd 3 cells
Test: Cell bound coagulation assay, stimulated endothelial cells
Format: cell-based, mouse
Details: for Factor Xa generation: mix with 0.5 μg/ml factor VIIa; for Factor Xa generation due to Factor VIIa production: mix with 2 μg/ml factor VII and 0.01 μg/ml factor VIIa, factor VII background subtracted
Protocol: To assay the coagulation induction of stimulated versus unstimulated endothelial cells, bEnd 3 cells were seeded in 48 well tissue culture plates at a density of 1×10^4 cells per well and allowed to adhere overnight. Cells were stimulated with endotoxin (0.5 μg/ml and 10 μg/ml) or TNFα (500 U/ml) for 4 h at 37° C. […] After incubation for 45 min at room temperature, cells were washed and incubated with various coagulation factor mixes as follows: (1) 0.5 μg/ml factor VIIa in a mix containing 2.8 μg/ml factor IX, 3.4 μg/ml factor X, 50 μM phospholipids, in calcium buffer (as specified above); (2) 0.01 μg/ml factor VIIa in a mix as in (1); (3) 2 μg/ml factor VII (Calbiochem-Novabiochem, San Diego, Calif.) in a mix as in (1); (4) 2 […] factor VII, 0.01 μg/ml factor VIIa in a mix as in (1). The supernatant of wells was transferred into a 96 well ELISA plate. Substrate S2765 was added and Factor Xa generation measured alongside different concentrations of Factor Xa standard (7 nkatS2222; 0.7 nkatS2222; 0.07 nkatS2222). OD405nm values were calculated as nkatS2222 Factor Xa from the Factor Xa standard curve.
bEnd 3 cells were seeded in 48 well tissue culture plates at a density of 1×10^4 cells per well and allowed to adhere overnight. Cells were stimulated with endotoxin (0.5 μg/ml and 10 μg/ml) or TNFα (500 U/ml) for 4 h at 37° C. […] After incubation for 45 min at room temperature, cells were washed and incubated with coagulation factor mix as follows: 0.5 μg/ml factor VIIa in a mix containing 2.8 μg/ml factor IX, 3.4 μg/ml factor X, 50 μM phospholipids, in calcium buffer; supernatant of wells was transferred into a 96 well ELISA plate. Substrate S2765 was added and Factor Xa generation measured alongside different concentrations of Factor Xa standard (7 nkatS2222; 0,7 nkatS2222; 0,07 nkatS2222). OD405nm values were calculated as nkatS2222 Factor Xa from the Factor Xa standard curve.

## tTF: extracellular domain of the mature Tissue Factor protein (amino acid 1-219)
Stimulation with 0.5 μg/ml LPS
  Factor Xa generation: 2.00 nkats2222
  Factor Xa generation due to Factor VIIa production: 3.00 nkats2222
Stimulation with 10 μg/ml LPS
  Factor Xa generation: 2.91 nkats2222
Stimulation with Medium
  Factor Xa generation: 0.40 nkats2222
  Factor Xa generation due to Factor VIIa production: 0.70 nkats2222
Stimulation with TNFα (500 U/ml)
  Factor Xa generation: 0.67 nkats2222
Stimulation with TNFα
  Factor Xa generation due to Factor VIIa production: 1.91 nkats2222
